Where no end group is shown, it is not given here.
System: plasma cells (B220^+CD138^+)
Experiment: Colon B cell populations by flow cytometry: plasma cells
Type: in vivo, mouse
Settings: vs disease controls
Procedure: Determination of Colon B cell Populations. Small colon samples collected from either after immunization only or after colitis experiments were collected at experimental endpoints. Colon samples were flushed with PBS and then digested in a solution containing 200 U/mL collagenase from Clostridium histolyticum (Sigma, C5138) and 0.1 mg/mL DNase I (Sigma, 10104159001) in 1×PBS. Digestion occurred at 37° C. while shaking for a total of 30 minutes. The solutions were then filtered to isolate cells, spun down, and transferred into ice cold flow buffer (2% heat-inactivated FBS in 1×PBS). The cells were blocked with mouse BD Fc Block (Clone: 2.4G2) (BD Biosciences, 553142) for 30 min on ice and then washed in flow buffer and stained with antibodies against CD5-APC (Clone: 53-7.3) (BioLegend, 100626), CD19-APC/Cy7 (Clone: 6D5) (BioLegend, 115530), B220-PE (Clone: RA3-6B2) (BioLegend, […]), and CD138-PE/Cy7 (Clone: 281-2) (BioLegend, […]) in flow buffer for 30 min on ice. Cells were washed and DAPI was added. Flow cytometry was then conducted on a BD FACSCanto II cytometer and the results were analyzed using FlowJo software.

(C11H22NO6P)n-CCCCSGSG-QQKFQFQFEQQ-NH2 (CCCCSGSGQQKFQFQFEQQ-NH2; not fully specified; cysteine pairing not given here; also: phosphorylcholine groups (C11H22NO6P) n=1-4, attachment not placed) [PCM-Q11, linear multi-PC conjugate]
colon plasma cells after chronic DSS colitis: more plasma cells than disease controls
